Earlier results, collected in paper PMC11876601 (Molecular Systems Biology, 2025).
Where two headings read alike, the source gives them in different places.

What was measured:
RPS6KA1 = tested on: RPS6KA1; parameters: method as in Klaeger et al. (2017); conditions: lysate 4 cell line mix (Colo205, K-562, MV-4-11, and SK-N-BE(2)), Kinobeads y, ref Klaeger et al. (2017); cited from earlier work
BTK = tested on: BTK; parameters: method as in Klaeger et al. (2017); conditions: lysate 4 cell line mix (Colo205, K-562, MV-4-11, and SK-N-BE(2)), Kinobeads y, ref Klaeger et al. (2017); cited from earlier work
PRKX = tested on: PRKX; parameters: method as in Klaeger et al. (2017); conditions: lysate 4 cell line mix (Colo205, K-562, MV-4-11, and SK-N-BE(2)), Kinobeads y, ref Klaeger et al. (2017); cited from earlier work
PRKAB1 [1] = tested on: PRKAB1; parameters: method as in Klaeger et al. (2017); conditions: lysate 4 cell line mix (Colo205, K-562, MV-4-11, and SK-N-BE(2)), Kinobeads y, ref Klaeger et al. (2017); cited from earlier work
PRKAA1 = tested on: PRKAA1; parameters: method as in Klaeger et al. (2017); conditions: lysate 4 cell line mix (Colo205, K-562, MV-4-11, and SK-N-BE(2)), Kinobeads y, ref Klaeger et al. (2017); cited from earlier work
MAP4K2 = tested on: MAP4K2; parameters: method as in Klaeger et al. (2017); conditions: MAP4K2, 4 cell line mix lysate, Kinobeads y, ref Klaeger et al. (2017); cited from earlier work
GAK = conditions: 5 cell line mix lysate, Kinobeads ε, ref Reinecke et al. (2023), cited from earlier work
PTK2 = tested on: PTK2; parameters: method as in Reinecke et al. (2023); conditions: PTK2, 5 cell line mix lysate, Kinobeads ε, ref Reinecke et al. (2023), cited from earlier work
INCENP = molecular target: INCENP; parameters: method as in Reinecke et al. (2023); conditions: 5 cell line mix lysate, Kinobeads ε, ref Reinecke et al. (2023), cited from earlier work
INSR = molecular target: INSR; parameters: method as in Reinecke et al. (2023); conditions: 5 cell line mix lysate, Kinobeads ε, ref Reinecke et al. (2023), cited from earlier work
CSNK2A1;CSNK2A3 = conditions: CSNK2A1;CSNK2A3, 5 cell line mix lysate, Kinobeads ε, ref Reinecke et al. (2023), cited from earlier work
FGFR1 = tested on: FGFR1; parameters: method as in Reinecke et al. (2023); conditions: FGFR1, 5 cell line mix lysate, Kinobeads ε, ref Reinecke et al. (2023), cited from earlier work
PRKAB1 [2] = tested on: PRKAB1; parameters: method as in Reinecke et al. (2023); conditions: PRKAB1, 5 cell line mix lysate, Kinobeads ε, ref Reinecke et al. (2023), cited from earlier work
CLK2 = tested on: CLK2; parameters: method as in Reinecke et al. (2023); conditions: CLK2, 5 cell line mix lysate, Kinobeads ε, ref Reinecke et al. (2023), cited from earlier work
PHKG2 = conditions: PHKG2, 5 cell line mix lysate, Kinobeads ε, ref Reinecke et al. (2023), cited from earlier work
CSNK2B = conditions: 5 cell line mix lysate, Kinobeads ε, ref Reinecke et al. (2023), cited from earlier work
CSNK2A2 = conditions: CSNK2A2, 5 cell line mix lysate, Kinobeads ε, ref Reinecke et al. (2023), cited from earlier work
MAP3K5 = tested on: MAP3K5; parameters: method as in Reinecke et al. (2023); conditions: MAP3K5, 5 cell line mix lysate, Kinobeads ε, ref Reinecke et al. (2023), cited from earlier work
BUB1 = tested on: BUB1; parameters: method as in Reinecke et al. (2023); conditions: BUB1, 5 cell line mix lysate, Kinobeads ε, ref Reinecke et al. (2023), cited from earlier work
LCK = molecular target: LCK; parameters: method as in Reinecke et al. (2023); conditions: 5 cell line mix lysate, Kinobeads ε, ref Reinecke et al. (2023), cited from earlier work

For `C[C@]12O[C@H](C[C@]1(O)CO)n1c3ccccc3c3c4c(c5c6ccccc6n2c5c31)CNC4=O` [Lestaurtinib], which EC50 (RPS6KA1) is on record?
The EC50 was 3290 nM.

And the EC50 (PRKAB1 [1])?
The EC50 was 1790 nM.

And the EC50 (PRKAA1)?
The EC50 was 1320 nM.

For `COc1cc(N2CCC(N3CCN(C)CC3)CC2)ccc1Nc1ncc(Cl)c(Nc2ccccc2P(C)(C)=O)n1` [Brigatinib], which Kd (GAK; read-out: KDapp) is on record?
The Kd was 5.8 nM.

What about the EC50 (GAK) of the same molecule?
Its EC50 is 10.3 nM.

And the pKDapp (GAK)?
The pKDapp was 8.24.

What about the EC50 (PTK2) of the same molecule?
The EC50 was 12.6 nM.

And the pKDapp (PTK2)?
The pKDapp was 8.29.

And the Kd (PTK2; read-out: KDapp)?
The Kd was 5.15 nM.

What about the Kd (INCENP; read-out: KDapp) of the same molecule?
Its Kd is 1030 nM.

And the EC50 (INCENP)?
Its EC50 is 1160 nM.

What about the pKDapp (INCENP) of the same molecule?
The pKDapp was 5.99.

And the Kd (INSR; read-out: KDapp)?
The Kd was 1320 nM.

What about the EC50 (INSR) of the same molecule?
The EC50 was 1750 nM.

And the pKDapp (INSR)?
The pKDapp was 5.88.

What about the EC50 (CSNK2A1;CSNK2A3) of the same molecule?
Its EC50 is 331 nM.

What about the pKDapp (CSNK2A1;CSNK2A3) of the same molecule?
The pKDapp was 6.48.

And the Kd (CSNK2A1;CSNK2A3; read-out: KDapp)?
Its Kd is 331 nM.

And the EC50 (FGFR1)?
Its EC50 is 419 nM.

And the pKDapp (FGFR1)?
Its pKDapp is 6.51.

What about the Kd (FGFR1; read-out: KDapp) of the same molecule?
The Kd was 308 nM.

And the EC50 (PRKAB1 [2])?
The EC50 was 507 nM.

And the pKDapp (PRKAB1 [2])?
The pKDapp was 6.47.

And the Kd (PRKAB1 [2]; read-out: KDapp)?
The Kd was 335 nM.

What about the EC50 (CLK2) of the same molecule?
The EC50 was 686 nM.

And the pKDapp (CLK2)?
Its pKDapp is 6.35.

What about the Kd (CLK2; read-out: KDapp) of the same molecule?
The Kd was 444 nM.

What about the EC50 (PHKG2) of the same molecule?
The EC50 was 199 nM.

And the pKDapp (PHKG2)?
The pKDapp was 6.71.

And the Kd (PHKG2; read-out: KDapp)?
Its Kd is 193 nM.

What about the Kd (CSNK2B; read-out: KDapp) of the same molecule?
The Kd was 508 nM.

And the EC50 (CSNK2B)?
The EC50 was 508 nM.

And the pKDapp (CSNK2B)?
The pKDapp was 6.29.

What about the EC50 (CSNK2A2) of the same molecule?
Its EC50 is 720 nM.

What about the pKDapp (CSNK2A2) of the same molecule?
Its pKDapp is 6.16.

And the Kd (CSNK2A2; read-out: KDapp)?
Its Kd is 693 nM.

What about the EC50 (MAP3K5) of the same molecule?
The EC50 was 970 nM.

What about the pKDapp (MAP3K5) of the same molecule?
Its pKDapp is 6.11.

And the Kd (MAP3K5; read-out: KDapp)?
Its Kd is 776 nM.

What about the EC50 (BUB1) of the same molecule?
Its EC50 is 6990 nM.

And the pKDapp (BUB1)?
Its pKDapp is 5.16.

What about the Kd (BUB1; read-out: KDapp) of the same molecule?
The Kd was 6990 nM.

And the Kd (LCK; read-out: KDapp)?
The Kd was 963 nM.

And the EC50 (LCK)?
The EC50 was 2190 nM.

And the pKDapp (LCK)?
The pKDapp was 6.02.
